We go through two compounds from patent US20260364030A1, “NOVEL SELECTIVE INHIBITORS OF LYSYL OXIDASES” (Syntara Limited, priority 2022, published 2026).

In series [1] the test system is lysyl oxidase. Particulars: various models (e.g. CCl4, bleomycin, quartz, cancer) and tissues (e.g. liver, lung and dermis); cited from earlier work.
Series [2] in a line: Diffusion through human skin, Franz diffusion cell. The class given is in vitro ADME. Particulars: topical formulation containing 2% Compound 1. From the text:
Skin permeability is essential when considering topical application to treat skin conditions. One way to evaluate skin permeability is to use a Franz diffusion cell system with human skin as a membrane (Particle Sciences; Technical Brief 2009; Vol. 10). The donor compound (Compound 1), topically formulated, is applied on the top chamber and diffusion through the skin is monitored at relevant time points by sampling the solution in the receptor chamber via the sampling port. The concentration of Compound 1 was determined by quantitative HPLC analysis.

Series [3] is described as follows: Stability in topical formulation (purity profile at room temperature). The class given is physicochemical. The settings on record: for % Purity of Compound 1 in topical formulation: 1% Compound 1.
Series [4] has as its target T1, Human recombinant SSAO/VAP-1 (Homo sapiens, UniProt Q16853).
T1 construct: a cloned cDNA template corresponding to residues 34-763 of human SSAO/VAP-1; TEV cleavage site (N); made in house; host or cells: CHO-K1 glycosylation mutant cell line, Lee 8 (vector assembled by Geneart AG)
In words: Inhibition of human recombinant SSAO/VAP-1, fluorescent Amplex Red assay. The class given is biochemical. The settings on record: 30 min incubation at 37 °C; benzylamine 600 μM in reaction mixture. The procedure: Human recombinant SSAO/VAP-1 amine oxidase activity was determined using the coupled colorimetric method as described for monoamine oxidase, copper-containing amine oxidases and related enzymes [Holt A. and Palcic M., 2006]. Briefly, a cloned cDNA template corresponding to residues 34-763 of human SSAO/VAP-1, and incorporating a mouse Ig kappa (κ) signal sequence, N-terminal flag epitope tag and tobacco etch virus (TEV) cleavage site, was assembled in a mammalian expression vector (pLO-CMV) by Geneart AG. This vector containing human SSAO/VAP-1 residues was transfected into CHO-K1 glycosylation mutant cell line, Lee 8. A clone stably expressing human SSAO/VAP-1 was isolated and cultured in large scale. Active human SSAO/VAP-1 was purified and recovered using immunoaffinity chromatography. This was used as the source for SSAO/VAP-1 activity. A high-throughput fluorescent assay was developed using either 96 or 384 well format. Briefly, in a standard 384 well plate assay 25 μL of purified human SSAO/VAP-1 (0.25 μg/mL) in 0.1 M sodium phophate buffer (pH 7.4) was added into each well. […] The fluorescence unit (RFU) was read every 2.5 min for 30 min at 37 °C excitation 544 nm and emission 590 (Optima; BMG labtech). The slope/min of the kinetics for each well was calculated using MARS data analysis software (BMG labtech) and this value was used to deduce the IC50 value (Dotmatics).

Series [5] deals with collagen cross-links. Nature of the series: Rodent injury model (full-thickness skin excision). The class given is in vivo, mice. Here is the method: Mice received injury by excision of full-thickness skin (3 cm^2 on the flank of the mice). In the treatment groups, 4% Compound 1 solution was applied topically, once a day, starting from 24 hours post injury to 1 week post injury. Wounds were then left to heal for an additional week. Mice were euthanized at 4-6 weeks post injury and the tissue was analyzed for collagen content, hydroxyproline as a surrogate marker of collagen content, extracted cross-link biomarkers: HLNL, DHLNL (reduced forms of deH-HLNL and deH-DHLNL respectively), PYD and DPD, elastin content, and changes in gross morphology and histology (using polarised light microscopy, immunohistochemistry, standard staining markers and LCMSMS).

The mark [6] stands for this setting: 4% solution topically once a day, 24 hours to 1 week post injury, vs control (FIG. 4, *=P≤0.05).

T1 sequence (Q16853 34-763): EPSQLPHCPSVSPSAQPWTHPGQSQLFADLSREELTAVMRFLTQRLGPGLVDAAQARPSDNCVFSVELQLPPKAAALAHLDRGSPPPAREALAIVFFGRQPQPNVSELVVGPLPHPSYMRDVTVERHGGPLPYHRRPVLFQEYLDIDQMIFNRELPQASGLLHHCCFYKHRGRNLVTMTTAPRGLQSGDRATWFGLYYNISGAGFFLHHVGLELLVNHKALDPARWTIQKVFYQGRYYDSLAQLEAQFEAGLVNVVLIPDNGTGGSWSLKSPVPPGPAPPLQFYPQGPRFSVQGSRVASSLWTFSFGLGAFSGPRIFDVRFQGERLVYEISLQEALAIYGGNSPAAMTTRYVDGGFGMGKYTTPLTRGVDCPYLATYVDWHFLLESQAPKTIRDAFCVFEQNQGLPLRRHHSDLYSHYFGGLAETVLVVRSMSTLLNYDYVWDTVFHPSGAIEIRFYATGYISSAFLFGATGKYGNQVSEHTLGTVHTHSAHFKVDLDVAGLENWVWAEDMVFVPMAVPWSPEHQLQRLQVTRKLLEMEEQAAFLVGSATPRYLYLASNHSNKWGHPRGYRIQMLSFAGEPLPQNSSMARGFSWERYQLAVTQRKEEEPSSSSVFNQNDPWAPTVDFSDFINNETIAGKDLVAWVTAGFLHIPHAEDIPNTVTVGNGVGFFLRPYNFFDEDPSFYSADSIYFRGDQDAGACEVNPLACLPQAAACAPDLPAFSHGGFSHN

Turning to `N#CCCN` [BAPN, β-aminopropionitrile, reference compound], the “Reduction of collagen content” value in series [1] was “efficacious in reducing collagen content”.
Broadly, the IC50 is the concentration that gives 50% inhibition. For the compound `NC/C(=C\F)CS(=O)(=O)c1ccccc1` [Compound 1, (E)-3-fluoro-2-((phenylsulfonyl)methyl)prop-2-en-1-amine], in series [2] (after 24 hours (FIG. 2)), the “Level in the receptor chamber” value is “high levels”. The “Permeability and diffusion through human skin” value in series [2] (time dependent (FIG. 2)) is “good permeability and diffusion”. For the same compound, the “% Purity of Compound 1 in topical formulation” value in series [3] (room temperature, t = 3 months, 129600 min) worked out at 99.81%; in series [3] (room temperature, t = 6 months, 259200 min) it was 99.82%; in series [3] (room temperature, t = 9 months, 388800 min) it was 99.79%; in series [3] (t = 0), 99.83%. The “Compound peak percentage in topical formulation” value in series [3] (topical formulation 1, at all tested time points) is given as “above 99.5%”. The IC50 in series [4] is greater than 30 µM. The “Immature crosslinks (LCMS, normalized for protein content)” value in series [5] (setting [6]) is “reduced”. For the same compound, the “Mature crosslinks (LCMS, normalized for protein content)” value in series [5] (setting [6]) is “reduced”. For the same compound, the Collagen cross-links entry in series [5] (rodent injury model, FIG. 4 (*=P≤0.05)) is recorded as “reduction in collagen cross-links”.
